Assay results as given in patent publication US20130261986A1, “METHOD FOR DETERMINING LIPOPHILICITY” (ASTELLAS PHARMA INC., priority 2010, published 2013).

Assays:
[1] = Lipophilicity (logD7.4) determination according to the present invention, two 1-octanol/phosphate buffer solvent systems in 96 deep well plate, LC/MS; assay type: physicochemical; conditions: 1-octanol:phosphate buffer pH 7.4 at 5:95 and 50:50, 25° C., 3 hours shaking; for logD: read-out: LogD Inventive determination method (Example)
Protocol: Thirty-eight test compounds were determined for logD7.4 according to the present invention. The solution amount per well was set to 1 mL, and 1-octanol was used as a hydrophobic solvent and a phosphate buffer solution buffered at pH 7.4 as a hydrophilic solvent. The amounts of the test substance to be added to the first and second solvent systems, respectively, were adjusted to be equal (X=Y in Equation I). […] Following the above-mentioned conditions, X=Y, a=5, b=95, and c=d=50 were substituted into Equation I to obtain the following quadratic equation (Equation II). As described below, once the test substance was determined, the value of C2/C1 could be determined on the basis of the peak area values and dilution ratios. The resulting value was substituted into Equation II to determine the distribution ratio D, and the common logarithm of this ratio was obtained to thereby compute logD7.4.
Dispensing, shaking, dilution and other steps were automated by a dispensing robot (Hamilton; MicroLabSTARlet), and transfer of plates between systems and some other tasks were performed manually. The specific test procedure is as follows.
Dulbecco's reagent (for 1 L of Sigma's PBS solution; containing 8 g of sodium chloride, 1.15 g of anhydrous sodium monohydrogen phosphate, 0.2 g of potassium chloride, and 0.2 g of anhydrous potassium dihydrogen phosphate) was diluted to give a volume of 1 L, stirring was performed, and insoluble matters were filtered off. The pH of the solution was measured and adjusted to pH 7.4 with 1N HCl.
A separating funnel was charged with a sufficient amount of each of 1-octanol (Kanto Chemical; for distribution coefficient determination) and the phosphate buffer solution prepared in (1), they were mixed well, and the mixture was allowed to stand overnight at room temperature. The upper and lower phases were recovered separately to obtain 1-octanol saturated with the phosphate buffer solution (saturated 1-octanol) and the phosphate buffer solution saturated with 1-octanol (saturated phosphate buffer solution). The resulting solutions were stored at room temperature.
A test compound was added to DMSO to prepare a 10 mM solution.
(1) Ten microliters of the 10 mM test compound solution in DMSO and then 490 μL of saturated 1-octanol were dispensed into a 96 deep well plate. Stirring by suction and ejection was repeated 10 times to prepare a standard octanol solution of the test compound.
(2) Fifty microliters of the standard octanol solution was dispensed into each of two wells; thereafter, 950 μL of the saturated phosphate buffer solution was dispensed into the first well (hydrophobic solvent:hydrophilic solvent=5:95), and 500 μL of the saturated phosphate buffer solution and 450 μL of saturated 1-octanol were dispensed into the second well (hydrophobic solvent:hydrophilic solvent=50:50).
(3) A pressure curable sealant was applied to the multiwell plate, and then the plate was shaken on a shaker at 25° C. for 3 hours. After the shaking, centrifugation was performed at 3000 rpm for 5 minutes.
(4) The lower phase (aqueous phase) was drawn from the first well and diluted 10-fold with methanol to thereby prepare a sample. From the second well, the upper phase (1-octanol phase) was drawn and diluted 10-fold and 50-fold with methanol to thereby prepare two additional samples.
With these 4 samples placed on an LC/MS auto sampler, determination was performed automatically.
(3) The aqueous solution of 0.1% formic acid (solution A) and the acetonitrile solution of 0.1% formic acid (solution B) were used as a HPLC mobile phase.
(4) HPLC was performed using Waters Acquity with a binary pump. The column stationary phase used was a reversed-phase column having octadecyl groups (Acquity BEH C18, 1.7 μm, 2.0×30 mm). The column temperature was set to 50° C.
(5) MS was performed using Waters ZQ or SQD. Data was acquired with the detection mode being set to ESI^+ and the type of ion to be detected being set to [M+H]^+.

[2] = Lipophilicity determination by a shake-flask method (Comparative Example), 1-octanol/phosphate buffer pH 7.4, LC/MS; assay type: physicochemical; conditions: 1-octanol / phosphate buffer solution pH 7.4, shaken 10 minutes
[3] = cited from earlier work

Structure (SMILES) | logD [1] | logD [2] | LogD Literature value [3] | LogD Inventive determination method (Example) [1]
NC(=O)N1c2ccccc2C=Cc2ccccc21 [Carbamazepine] | 2 | 1.8 | 1.5 | 
CCCN(CCC)S(=O)(=O)c1ccc(C(=O)O)cc1 [Probenecid] | 0 | -0.3 |  | 
COc1ccc2c(c1)c(CC(=O)O)c(C)n2C(=O)c1ccc(Cl)cc1 [Indomethacin] |  | 1.2 | 0.9 | 1.1
CC(CCc1ccccc1)NCC(O)c1ccc(O)c(C(N)=O)c1 (stereo not drawn) [Labetalol] | 0.9 | 1 |  | 
CCc1ccc(CCOc2ccc(CC3SC(=O)NC3=O)cc2)nc1 (stereo not drawn) [Pioglitazone] | 3.2 | 3 |  | 
Cc1ccc(-c2cc(C(F)(F)F)nn2-c2ccc(S(N)(=O)=O)cc2)cc1 [Celecoxib] | 4.5 | 4.3 |  | 
OCCN1CCN(CCCN2c3ccccc3Sc3ccc(Cl)cc32)CC1 [Perphenazine] | 3.6 | 3.8 |  | 
CCOc1ccccc1OCCN[C@H](C)Cc1ccc(OC)c(S(N)(=O)=O)c1 [Tamsulosin] | 0.8 | 0.8 |  | 
